Several values for one entry are separate records, joined by “and”; a condition that tells them apart may be missing. Identical values can stand only once. Like-named read-outs stand apart in the source and are kept apart here. Marks after values point to notes of the source that are not given here.
How the values were obtained:
[1] = test system: subcutaneous pentylenetetrazole induced seizures; details: mice IP; cited from earlier work
[2] = test system: subcutaneous pentylenetetrazole induced seizures; details: rat PO; cited from earlier work
[3] = test system: maximal electroshock induced seizures; assay: Maximal electroshock seizure; format: in vivo; details: mice IP, 100mg/kg
[4] = test system: subcutaneous pentylenetetrazole induced seizures; assay: Subcutaneous metrazole seizure; format: in vivo, mice; details: 100mg/kg; for scMET, number protected/number tested: mice IP
[5] = test system: minimal muscular or neurological impairment (rotorod); assay: TOX, motor impairment by rotorod paradigm, mice IP; format: in vivo; details: 100mg/kg
[6] = test system: maximal electroshock induced seizures; assay: Maximal electroshock seizure; format: in vivo; details: rat PO, 30 mg/kg
[7] = test system: subcutaneous pentylenetetrazole induced seizures; assay: Subcutaneous metrazole seizure; format: in vivo, rat; details: for scMET, number protected/number tested: rat PO
[8] = test system: minimal muscular or neurological impairment (gait); assay: TOX, abnormal uncoordinated gait, rat PO; format: in vivo
[9] = test system: subcutaneous pentylenetetrazole induced seizures; assay: Subcutaneous metrazole seizure; format: in vivo; details: rat IP, 50 mg/kg
[10] = test system: minimal muscular or neurological impairment (gait); assay: TOX, abnormal uncoordinated gait, rat IP; format: in vivo
kindled motor seizure = assay: Preliminary hippocampal kindling screen, rats IP; format: in vivo
[11] = chronic dosing (5 days), data from NINDS; cited from earlier work
α1β3γ2 GABAA receptors = α1β3γ2 GABAA receptors (Homo sapiens, UniProt P14867+P18507); assay: Stimulation of GABA-induced currents in oocytes expressing GABAA receptors; details: concentration not given
seizures = assay: Antiseizure activity in mice dosed ip; format: in vivo; details: data not shown
[12] = rats IP, 30mg/kg, after 1h of dosing (kindling screen table)

Chain of α1β3γ2 GABAA receptors (P14867 28-456): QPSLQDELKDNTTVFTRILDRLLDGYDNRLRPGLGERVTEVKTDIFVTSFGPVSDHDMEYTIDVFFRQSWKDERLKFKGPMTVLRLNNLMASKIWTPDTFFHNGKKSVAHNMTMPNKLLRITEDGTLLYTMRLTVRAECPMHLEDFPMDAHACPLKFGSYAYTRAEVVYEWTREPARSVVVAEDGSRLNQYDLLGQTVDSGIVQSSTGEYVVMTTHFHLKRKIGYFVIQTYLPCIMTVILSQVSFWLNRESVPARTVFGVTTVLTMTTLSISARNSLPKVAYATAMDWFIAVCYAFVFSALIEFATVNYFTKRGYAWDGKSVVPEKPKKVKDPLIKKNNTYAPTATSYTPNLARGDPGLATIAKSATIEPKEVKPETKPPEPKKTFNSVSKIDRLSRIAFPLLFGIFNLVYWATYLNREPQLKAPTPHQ
Chain of α1β3γ2 GABAA receptors (P28472 26-473 partner): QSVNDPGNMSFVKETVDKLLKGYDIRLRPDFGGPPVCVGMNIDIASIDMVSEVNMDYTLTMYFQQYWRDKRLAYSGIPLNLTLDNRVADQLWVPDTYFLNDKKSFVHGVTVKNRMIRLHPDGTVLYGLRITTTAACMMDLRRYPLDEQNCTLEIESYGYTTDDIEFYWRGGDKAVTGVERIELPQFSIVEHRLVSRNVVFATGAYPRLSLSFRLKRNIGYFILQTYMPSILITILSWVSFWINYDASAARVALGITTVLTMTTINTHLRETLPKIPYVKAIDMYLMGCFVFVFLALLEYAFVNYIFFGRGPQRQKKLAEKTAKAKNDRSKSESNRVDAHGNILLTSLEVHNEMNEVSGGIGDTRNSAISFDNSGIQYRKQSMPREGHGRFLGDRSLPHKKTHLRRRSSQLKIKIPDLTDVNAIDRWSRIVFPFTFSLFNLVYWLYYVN
Chain of α1β3γ2 GABAA receptors (P18507 40-475): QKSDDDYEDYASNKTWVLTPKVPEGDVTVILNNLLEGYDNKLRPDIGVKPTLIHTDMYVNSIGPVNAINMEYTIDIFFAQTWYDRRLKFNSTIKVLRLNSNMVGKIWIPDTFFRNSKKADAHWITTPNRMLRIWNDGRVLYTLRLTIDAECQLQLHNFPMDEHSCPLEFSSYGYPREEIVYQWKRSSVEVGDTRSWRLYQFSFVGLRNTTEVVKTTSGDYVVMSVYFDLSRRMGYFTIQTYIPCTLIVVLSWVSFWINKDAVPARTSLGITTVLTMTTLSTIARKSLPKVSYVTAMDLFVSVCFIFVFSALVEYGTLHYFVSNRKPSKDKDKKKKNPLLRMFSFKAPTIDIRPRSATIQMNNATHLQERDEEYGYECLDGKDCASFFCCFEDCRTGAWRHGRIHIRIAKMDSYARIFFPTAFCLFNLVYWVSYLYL

Compound | ED50 scMET [1] [mg/kg] | MES, number protected/number tested ([6]; 0.5 h) | MES, number protected/number tested ([6]; 4.0 h) | scMET, number protected/number tested ([7]; 50 mg/kg, 0.5 h) | scMET, number protected/number tested ([7]; 50 mg/kg, 4.0 h) | TOX, number toxic/number tested ([8]; 0.5 h) | TOX, number toxic/number tested ([8]; 4.0 h) | scMET, number protected/number tested ([9]; 0.5 h) | TOX, number toxic/number tested ([10]; rat IP, 0.5 h) | TOX, number toxic/number tested [10, 12] | efficacy at α1 (α1β3γ2 GABAA receptors) [%] | scMET, number protected/number tested ([9]; 4.0 h) | TOX, number toxic/number tested ([10]; rat IP, 4.0 h) | also measured
NC(=O)N1c2ccccc2C=Cc2ccccc21 [Carbamazepine] | >50 | – | – | – | – | – | – | – | – | – | – | – | – | –
O=C1NC(=O)C(c2ccccc2)(c2ccccc2)N1 [Phenytoin] | >50 | – | – | – | – | – | – | – | – | – | – | – | – | ED50 scMET [2]: >500 mg/kg
C#Cc1ccc2c(c1)C(c1ccccn1)=NCc1c(C(=O)OCC)ncn1-2 [compound 2] | – | 1/4 | 0/4 | 4/4 | 0/4 | 0/4 | 0/4 | 7/8 | 0/8 | 0/2 ^e | 233 | – | – | MES, number protected/number tested ([3]; 0.5 h): 0/3; MES, number protected/number tested ([3]; 4.0 h): 0/3; scMET, number protected/number tested ([4]; 0.5 h): 3/5; scMET, number protected/number tested ([4]; 4.0 h): absent and 0/1; mice with raised scMET seizure threshold ([4]; mice ip, 0.5 h): 60%; TOX, number toxic/number tested ([5]; 0.5 h): no motor impairment and 0/8; TOX, number toxic/number tested ([5]; 4.0 h): 0/4; protection (scMET) ([7]; rats, po dosing, after four hours): no protection; TOX, number toxic/number tested ([10]; rat IP, after 1 h of dosing (footnote d, row 4.0 h)): 0/8 ^d; Seizure Score, Drug L - H (kindled motor seizure; 100mg/kg, pre-drug 4 5): 3; tolerance to the anticonvulsant effects [11]: did not develop
C#Cc1ccc2c(c1)C(c1ccccc1F)=NCc1c(C(=O)OCC)ncn1-2 [compound 3] | – | 0/4 | 1/4 | 3/4 | 4/4 | 0/4 | 0/4 | 3/4 | 0/4 | 0/2 ^e | 282 | 3/4 | 0/4 | Seizure Score, Drug L - H (kindled motor seizure; 50mg/kg, pre-drug 5): 3
C#Cc1ccc2c(c1)C(c1ccccc1Cl)=NCc1nnc(C)n1-2 [compound 4] | – | 0/4 | 0/4 | 4/4 | 3/4 | 0/4 | 0/4 | – | – | – | – | – | – | scMET, number protected/number tested ([7]; 15 mg/kg, 0.5 h): 3/4; scMET, number protected/number tested ([7]; 15 mg/kg, 4.0 h): 2/4; TOX, number toxic/number tested ([10]; rats IP, 3mg/kg, after 1h of dosing (kindling screen table)): 0/2 ^f; Seizure Score, Drug L - H (kindled motor seizure; 10mg/kg, pre-drug 5): 3
CCOC(=O)c1ncn2c1CN=C(c1ccccc1F)c1cc(I)ccc1-2 [compound 5] | – | – | – | 2/6 | – | 0/6 | – | 1/4 | 0/4 | – | – | 2/4 | 0/4 | scMET, number protected/number tested ([7]; 50 mg/kg, after 1 h of dosing (footnote d, row 4.0 h), 50 mg/kg): 5/6 and 5/6 ^d; TOX, number toxic/number tested ([8]; after 1 h of dosing (footnote d, row 4.0 h)): no observed TOX and 0/6 ^d; activity in mice dosed ip (seizures): no activity
